Measurements as given in ChEMBL document CHEMBL1201862, “PubChem BioAssay data set” (2004).
The source made the active and inactive calls.

What was measured:
[1] = Luminescence Cell-Based Dose Response HTS to Identify Inhibitors of 5'UTR Stem-Loop Driven Prion Protein mRNA Translation in H4 Neuroglioblastoma Cells. [Related pubchem assays: 1827 (Project Summary), 1813 (Primary HTS)]; assay type: functional
[2] = inhibitors of firefly luciferase expression or activity, dose response, H4 neuroglioma cells, luminescence (AID 1990); assay type: functional, cell-based
[3] = inhibitors of SNCA 5'UTR-driven reporter translation, confirmation, H4 neuroglioma cells, luminescence (AID 1988); assay type: functional, cell-based
[4] = target: T1, Rac GTPase-activating protein 1 (Homo sapiens, UniProt Q9H0H5); experiment: MgcRacGAP GTPase-activating activity inhibitors, confirmation, biochemical, ADP Hunter fluorescence, primary and confirmatory (AID 624330); assay type: functional
T1 sequence (Q9H0H5 whole entry): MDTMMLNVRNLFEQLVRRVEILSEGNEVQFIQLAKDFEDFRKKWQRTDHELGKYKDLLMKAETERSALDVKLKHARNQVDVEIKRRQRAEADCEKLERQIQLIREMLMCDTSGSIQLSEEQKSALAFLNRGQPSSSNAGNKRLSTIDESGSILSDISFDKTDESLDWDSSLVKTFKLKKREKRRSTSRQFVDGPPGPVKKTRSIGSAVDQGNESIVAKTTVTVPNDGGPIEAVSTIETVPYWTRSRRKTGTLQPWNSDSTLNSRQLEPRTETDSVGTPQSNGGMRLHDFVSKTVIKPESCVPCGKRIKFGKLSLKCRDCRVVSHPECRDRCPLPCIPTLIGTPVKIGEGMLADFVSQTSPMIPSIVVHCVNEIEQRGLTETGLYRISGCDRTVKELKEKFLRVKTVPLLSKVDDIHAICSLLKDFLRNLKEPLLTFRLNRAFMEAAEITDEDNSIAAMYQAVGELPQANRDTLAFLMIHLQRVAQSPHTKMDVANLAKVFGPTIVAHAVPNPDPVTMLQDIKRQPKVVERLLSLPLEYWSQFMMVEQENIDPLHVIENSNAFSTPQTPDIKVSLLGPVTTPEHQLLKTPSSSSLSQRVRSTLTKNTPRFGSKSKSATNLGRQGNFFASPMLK

Cytochrome P450 2C9 = Cytochrome P450 2C9 (Homo sapiens, UniProt P11712)
Cytochrome P450 2C19 = Cytochrome P450 2C19 (Homo sapiens, UniProt P33261); experiment: Cytochrome panel assay with activity outcomes. Panel member name: p450-cyp2c19 Compounds with AC50 equal or less than 10 uM are considered active; assay type: functional
H4 = experiment: Luminescence Cell-Based Dose Response HTS to Identify Activators of 5'UTR Stem-Loop Driven Prion Protein mRNA Translation in H4 Neuroglioblastoma Cells. [Related pubchem assays: 1829 (Project Summary), 1814 (Primary HTS)]; assay type: functional; conditions: Homo sapiens
Cytochrome P450 1A2 = target: T2, Cytochrome P450 1A2 (Homo sapiens, UniProt P05177);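 note: PubChem cytochrome P450 panel assay, CYP1A2 panel member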
T2 sequence (P05177 whole entry): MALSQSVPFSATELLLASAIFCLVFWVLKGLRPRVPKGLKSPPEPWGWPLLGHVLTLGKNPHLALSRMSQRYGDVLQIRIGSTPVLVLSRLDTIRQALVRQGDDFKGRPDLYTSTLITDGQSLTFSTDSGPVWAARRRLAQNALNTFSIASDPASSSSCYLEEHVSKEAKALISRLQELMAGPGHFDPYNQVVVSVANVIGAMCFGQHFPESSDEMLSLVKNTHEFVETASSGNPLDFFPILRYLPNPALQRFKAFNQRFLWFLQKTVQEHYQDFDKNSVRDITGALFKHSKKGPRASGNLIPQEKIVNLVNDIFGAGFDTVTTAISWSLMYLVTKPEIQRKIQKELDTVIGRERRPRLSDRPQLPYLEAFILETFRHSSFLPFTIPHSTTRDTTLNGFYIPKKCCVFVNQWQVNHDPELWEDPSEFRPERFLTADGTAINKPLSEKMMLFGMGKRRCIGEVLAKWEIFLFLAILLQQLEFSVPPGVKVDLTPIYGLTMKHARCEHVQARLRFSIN

[5] = target: T3, Heat shock factor protein 1 (Mus musculus, UniProt P38532); experiment: HSF1 potentiators in luciferase reporter cells, confirmation, cell-based, NIH3T3, luminescence, dose retest (AID 435004); assay type: functional;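 note: stress induced by proteasome inhibitor MG132 added 30 min after compound; luciferase reporter driven by HSF1 response element in NIH3T3 cells; actives raise luminescence as potentiators of the MG132 stress response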
T3 sequence (P38532 whole entry): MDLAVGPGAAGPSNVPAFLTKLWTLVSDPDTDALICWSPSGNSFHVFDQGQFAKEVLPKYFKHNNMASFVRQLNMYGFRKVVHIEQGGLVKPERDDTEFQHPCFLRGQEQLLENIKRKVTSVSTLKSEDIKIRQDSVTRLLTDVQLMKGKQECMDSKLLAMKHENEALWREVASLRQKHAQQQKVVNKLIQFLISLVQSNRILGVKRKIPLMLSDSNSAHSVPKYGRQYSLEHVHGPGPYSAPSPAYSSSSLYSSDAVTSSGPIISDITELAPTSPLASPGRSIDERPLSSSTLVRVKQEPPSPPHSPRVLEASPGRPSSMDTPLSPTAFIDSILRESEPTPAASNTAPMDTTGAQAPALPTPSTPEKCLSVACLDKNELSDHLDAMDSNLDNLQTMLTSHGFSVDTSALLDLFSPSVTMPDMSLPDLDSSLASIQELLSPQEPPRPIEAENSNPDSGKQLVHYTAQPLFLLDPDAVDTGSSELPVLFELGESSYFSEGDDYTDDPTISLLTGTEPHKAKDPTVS

Streptococcus = experiment: Group A Streptococcus viability loss, dose response, counter-screen for streptokinase expression inhibitor project, luminescence, BacTiterGlo (AID 1915); assay type: functional, organism-based;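 note: potency for reduction of bacterial viability or growth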
[6] = tested on: Streptococcus sp. 'group A'; experiment: growth inhibition of control SK(-) GAS strain, dose response, counter-screen for streptokinase expression inhibitor project, luminescence, kanamycin, BacTiterGlo, confirmation (AID 1900); assay type: functional, organism-based
Streptokinase A = target: T4, Streptokinase A (Streptococcus pyogenes serotype M1, UniProt P10520); experiment: S. pyogenes streptokinase expression inhibitors, potency, dose response, plasminogen activation absorbance, OD405 (AID 1914); assay type: functional, Streptococcus pyogenes M1 GAS;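 note: secreted streptokinase activity via plasminogen activation per viability signal from cell pellet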
T4 sequence (P10520 whole entry): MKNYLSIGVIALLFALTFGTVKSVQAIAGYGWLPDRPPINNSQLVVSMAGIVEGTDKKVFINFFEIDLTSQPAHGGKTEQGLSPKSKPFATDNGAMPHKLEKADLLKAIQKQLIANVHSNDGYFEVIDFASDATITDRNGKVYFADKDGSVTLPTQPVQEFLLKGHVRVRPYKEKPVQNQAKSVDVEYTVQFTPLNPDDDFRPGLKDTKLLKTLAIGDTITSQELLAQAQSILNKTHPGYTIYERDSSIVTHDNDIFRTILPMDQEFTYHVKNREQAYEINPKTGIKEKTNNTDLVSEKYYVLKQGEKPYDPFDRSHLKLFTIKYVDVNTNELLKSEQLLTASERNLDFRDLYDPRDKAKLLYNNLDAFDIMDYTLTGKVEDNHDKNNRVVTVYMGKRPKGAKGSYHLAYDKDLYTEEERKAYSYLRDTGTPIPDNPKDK

Chain of Cytochrome P450 2C9 (P11712 whole entry): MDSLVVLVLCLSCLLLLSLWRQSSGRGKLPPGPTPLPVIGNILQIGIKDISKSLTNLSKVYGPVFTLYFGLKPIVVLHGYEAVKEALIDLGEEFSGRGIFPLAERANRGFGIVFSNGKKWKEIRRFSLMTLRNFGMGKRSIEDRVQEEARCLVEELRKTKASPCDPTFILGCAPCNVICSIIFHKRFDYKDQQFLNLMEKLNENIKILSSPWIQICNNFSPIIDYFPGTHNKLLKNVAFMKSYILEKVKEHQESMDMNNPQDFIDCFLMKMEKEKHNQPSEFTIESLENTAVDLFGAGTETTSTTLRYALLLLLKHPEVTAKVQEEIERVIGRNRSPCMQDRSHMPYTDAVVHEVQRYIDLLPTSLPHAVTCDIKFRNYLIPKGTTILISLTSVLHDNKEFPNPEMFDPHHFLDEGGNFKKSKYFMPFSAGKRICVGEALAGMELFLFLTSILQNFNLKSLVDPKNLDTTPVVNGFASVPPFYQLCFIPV
Chain of Cytochrome P450 2C19 (P33261 whole entry): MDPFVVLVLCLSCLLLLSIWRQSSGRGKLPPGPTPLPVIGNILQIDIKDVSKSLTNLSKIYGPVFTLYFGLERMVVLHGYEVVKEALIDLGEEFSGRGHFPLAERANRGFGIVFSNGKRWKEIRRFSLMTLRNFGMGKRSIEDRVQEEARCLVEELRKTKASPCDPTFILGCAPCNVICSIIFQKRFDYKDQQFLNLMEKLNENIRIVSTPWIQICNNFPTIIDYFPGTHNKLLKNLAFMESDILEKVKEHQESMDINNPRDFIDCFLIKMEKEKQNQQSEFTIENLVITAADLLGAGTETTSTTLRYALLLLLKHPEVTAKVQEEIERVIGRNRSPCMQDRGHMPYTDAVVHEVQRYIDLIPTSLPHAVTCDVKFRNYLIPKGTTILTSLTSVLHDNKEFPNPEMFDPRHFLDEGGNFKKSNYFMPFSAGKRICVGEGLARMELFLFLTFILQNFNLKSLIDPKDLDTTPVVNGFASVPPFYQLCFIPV

## CCOC(=O)c1c(C)[nH]c(C)c1C(=O)CSc1nc2ccccc2c(=O)n1-c1ccc(C)cc1
[1]
  EC50: > 120 µM (not active)
[2]
  EC50: 13.4 µM (active)
[3]
  EC50: > 120 µM (not active)

## Cc1cc(O)c(C)c(O)c1/C=N/NC(=O)c1cccnc1
[4]
  IC50: 101 µM (active)

## CN(C)c1ccc(-c2cc(-n3ccnc3)ncn2)cc1
Cytochrome P450 2C9
  AC50: 0.794 µM (inconclusive)

## COc1ccc(NC2CCCN(C(=O)c3ccccc3C(F)(F)F)C2)cc1 (stereo not given)
[4]
  IC50: 75.2 µM (active)

## COc1ccc(C(=O)N/C(=C/c2cccs2)C(=O)NCCCn2ccnc2)cc1OC
Cytochrome P450 2C19; read-out: AC50
  AC50: 8.91 µM (inconclusive)
Cytochrome P450 2C9
  AC50: 5.01 µM (inconclusive)

## COc1ccc(C(=O)/C=C/c2ccc(O)cc2)c2c1CC(O)C(C)(C)O2 (stereo not given)
[4]
  IC50: 56.9 µM (active)

## CCOC(=O)c1oc2cc(OC(C)=O)ccc2c(=O)c1-c1ccc(OC)c(OC)c1
[1]
  EC50: > 120 µM (not active)
[2]
  EC50: > 120 µM (not active)
[3]
  EC50: > 120 µM (not active)

## COc1ccc(C2CC(c3ccc4ccccc4c3)=NN2C(=O)COC(=O)C2CCC(=O)N2)cc1 (stereo not given)
H4
  EC50: 66.5 µM (active)

## ClC1(Cl)CC1Cn1c(C2CC2)nc2ccccc21 (stereo not given)
[1]
  EC50: > 120 µM (not active)
[2]
  EC50: > 120 µM (not active)
[3]
  EC50: > 120 µM (not active)

## CCN=C(S)Nc1cc(Cl)ccc1Oc1ccccc1
[1]
  EC50: > 120 µM (not active)
[2]
  EC50: > 120 µM (not active)
[3]
  EC50: > 120 µM (not active)

## O=C(Nc1ccccc1)c1cc([N+](=O)[O-])ccc1NC1CCCCC1
[1]
  EC50: > 120 µM (not active)
[2]
  EC50: 16.4 µM (active)
[3]
  EC50: > 120 µM (not active)

## COc1ccc(/C=C(/C(=O)Nc2ccccc2C(=O)NC(C)C)c2ccccc2)cc1
[1]
  EC50: 83.5 µM (active)
[2]
  EC50: 13.7 µM (active)
[3]
  EC50: 30.2 µM (active)

## COc1cc(OC)cc(C(=O)NC(=S)Nc2ccc(Cl)c(C(=O)O)c2)c1
Cytochrome P450 2C9
  AC50: 12.6 µM (inconclusive)

## COc1cc(/C(C)=N/NC(=O)C(O)(c2ccccc2)c2ccccc2)ccc1O
[4]
  IC50: 104 µM (active)

## COc1ccc(N2CCN(C(=O)c3ccc(C[S+]([O-])c4cccc(Cl)c4)o3)CC2)cc1 (stereo not given)
[4]
  IC50: 326 µM (active)

## Fc1ccccc1Nc1nnc(S)s1
[4]
  IC50: 54.3 µM (active)

## CCCCN(C)CCNC(=O)CSCc1ccc(C)cc1
[4]
  IC50: 220 µM (active)

## COc1ccccc1/C=C(/C(=O)OCC(=O)Nc1ccc(N(C)C)cc1)c1ccccc1
[4]
  IC50: 61 µM (active)

## CO[C@@H]1/C=C\O[C@]2(C)Oc3c(C)c(O)c4c(O)c(c(CN5CCN(C)CC5)c(O)c4c3C2=O)NC(=O)/C(C)=C\C=C[C@@H](C)[C@@H](O)[C@H](C)[C@@H](O)[C@H](C)[C@H](OC(C)=O)[C@@H]1C
Cytochrome P450 2C9
  AC50: 6.31 µM (inconclusive)

## COc1cccc(CN2CCN(Cc3cccc(F)c3)CC2)c1
[4]
  IC50: 86 µM (active)

## CC(=O)NN1C(=O)/C(=C\c2ccc(O)cc2)SC1=S
[4]
  IC50: 121 µM (active)

## NS(=O)(=O)c1nc(S(=O)(=O)O)c2[nH]cnc2n1
Cytochrome P450 2C19
  AC50: inconclusive
Cytochrome P450 1A2
  AC50: 5.01 µM (inconclusive)

## CC(=O)c1ccc(N=C(S)N2C(C)CCCC2C)cc1 (stereo not given)
[5]
  EC50: > 260 µM (inactive)

## Oc1nc(N2CCCCCC2)nc(N2CCCCCC2)n1
Cytochrome P450 2C19; read-out: AC50
  AC50: 5.62 µM (inconclusive)
Cytochrome P450 1A2
  AC50: 22.4 µM (inconclusive)

## CC(C)CN(Cc1cc(=O)oc2cc(-c3ccccc3)c(O)cc12)CC(C)C
Streptococcus
  EC50: 14.3 µM (active)
[1]
  EC50: > 120 µM (not active)
[6]
  EC50: 5.29 µM (active)
Streptokinase A
  EC50: 2.43 µM (active)
[2]
  EC50: 12.1 µM (active)
[3]
  EC50: > 120 µM (not active)

## Brc1c[nH]c2nc(SC/C=C/c3ccccc3)nc-2c1
[5]
  EC50: 1.37 µM (active)

## O=C(O)CSc1nc2ccccc2nc1Cc1ccccc1F
[5]
  EC50: > 260 µM (inactive)

## COc1cc(N=Nc2ccc(C(=O)N(C)C)cc2)c(C)cc1N
[4]
  IC50: 52.9 µM (active)

## CN(C)S(=O)(=O)c1ccc(Cl)c(NC(=O)COC(=O)CN2C(=O)C3CCCCC3C2=O)c1 (stereo not given)
[1]
  EC50: > 120 µM (not active)
[2]
  EC50: > 120 µM (not active)
[3]
  EC50: > 120 µM (not active)

## COc1cc(C(=O)NCC2CCCO2)ccc1OCc1ccc(Cl)cc1Cl (stereo not given)
[5]
  EC50: 104 µM (active)

## O=C(Nc1cccc(OC(=O)c2cccnc2)c1)c1cccnc1
Cytochrome P450 2C9
  AC50: 28.2 µM (inconclusive)

## CN(Cc1ccccc1)C(=O)CC(c1ccccc1)c1cc(Cl)ccc1O (stereo not given)
Cytochrome P450 1A2
  AC50: 25.1 µM (inconclusive)

## CCC/C=C(\CCC)C(NP(=O)(c1ccccc1)c1ccccc1)c1ccc(-c2ccccc2)cc1 (stereo not given)
Cytochrome P450 1A2
  AC50: 2.51 µM (inconclusive)

## CCc1ccc(/C=C2/C(=O)N(c3ccccc3)C(=S)N2CC(=O)OC)s1
[1]
  EC50: 11.2 µM (active)
[2]
  EC50: > 120 µM (not active)
[3]
  EC50: 14.4 µM (active)

## COc1ccccc1N1CCN(Cc2cccc(Br)c2)CC1
[4]
  IC50: 130 µM (active)

## CSc1nncc(-c2ccc(F)c(F)c2)n1
Cytochrome P450 2C9
  AC50: 28.2 µM (inconclusive)
